Results from EP0463456A1, “Phosphorus-containing HMG-CoA reductase inhibitors, new intermediates and their use” (E.R. SQUIBB & SONS, INC., priority 1990, dated 1992).

Target: T1, Rat hepatic HMG-CoA reductase (Rattus norvegicus, UniProt P51639)
T1 construct: Livers are removed from 2-4 cholestyramine-fed, decapitated, Sprague Dawley rats, and homogenized in phosphate buffer A; from tissue; host or cells: liver microsomes of cholestyramine-fed Sprague Dawley rats
T1 sequence (P51639 1-887): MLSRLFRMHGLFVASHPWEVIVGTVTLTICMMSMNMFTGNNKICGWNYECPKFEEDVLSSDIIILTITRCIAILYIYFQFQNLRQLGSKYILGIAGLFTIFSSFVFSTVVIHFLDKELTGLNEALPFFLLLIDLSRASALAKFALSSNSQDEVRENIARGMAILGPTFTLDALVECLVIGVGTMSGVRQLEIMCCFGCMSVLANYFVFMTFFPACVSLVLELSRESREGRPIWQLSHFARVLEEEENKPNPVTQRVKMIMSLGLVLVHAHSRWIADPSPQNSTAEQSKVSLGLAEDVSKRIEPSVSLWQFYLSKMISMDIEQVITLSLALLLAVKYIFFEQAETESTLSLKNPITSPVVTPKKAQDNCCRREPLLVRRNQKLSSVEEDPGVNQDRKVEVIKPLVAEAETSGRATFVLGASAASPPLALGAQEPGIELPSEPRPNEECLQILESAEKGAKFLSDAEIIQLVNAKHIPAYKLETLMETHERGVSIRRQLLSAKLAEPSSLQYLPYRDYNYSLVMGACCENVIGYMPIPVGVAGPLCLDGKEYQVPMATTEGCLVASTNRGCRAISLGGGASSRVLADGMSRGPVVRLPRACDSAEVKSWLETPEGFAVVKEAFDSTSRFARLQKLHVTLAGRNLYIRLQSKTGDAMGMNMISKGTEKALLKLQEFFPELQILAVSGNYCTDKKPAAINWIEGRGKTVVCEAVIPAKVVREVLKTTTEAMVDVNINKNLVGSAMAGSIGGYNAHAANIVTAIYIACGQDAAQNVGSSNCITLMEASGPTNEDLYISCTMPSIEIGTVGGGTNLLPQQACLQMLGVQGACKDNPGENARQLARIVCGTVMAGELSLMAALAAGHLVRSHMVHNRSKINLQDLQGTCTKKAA
Test: Rat Hepatic HMG-CoA Reductase test (conversion of 14C-HMG-CoA to 14C-mevalonic acid by rat hepatic microsomes)
Assay type: biochemical
Details: concentration producing 50% inhibition of enzyme activity, 100 µM HMG-CoA, 20 minutes at 37° C, read-out: Reductase 150
Method: 1) Rat Hepatic HMG-CoA Reductase
Rat hepatic HMG-CoA reductase activity is measured using a modification of the method described by Edwards (Edwards, P.A., et al., J. Lipid Res. 20:40, 1979). Rat hepatic microsomes are used as a source of enzyme, and the enzyme activity is determined by measuring the conversion of the ^14C-HMG-CoA substrate to 14C-mevalonic acid.
a. Preparation of Microsomes
Livers are removed from 2-4 cholestyramine-fed, decapitated, Sprague Dawley rats, and homogenized in phosphate buffer A (potassium phosphate, 0.04 M, pH 7.2; KCI, 0.05 M; sucrose, 0.1 M; EDTA, 0.03 M; aprotinin, 500 KI units/ml). The homogenate is spun at 16,000 x g for 15 minutes at 4°C. The supernatant is removed and recentrifuged under the same conditions a second time. The second 16,000 x g supernatant is spun at 100,000 x g for 70 minutes at 4° C. Pelleted microsomes are resuspended in a minimum volume of buffer A (3-5 ml per liver), and homogenized in a glass/glass homogenizer. […]
Standardized assays for the evaluation of inhibitors are conducted according to the following procedure. […] The first 0.5 ml is discarded, and the next 1.5 ml is collected and counted for both tritium and carbon 14 in 10.0 ml Opti-fluor scintillation fluid. Results are calculated as nmoles mevalonic acid produced per 20 minutes, and are corrected to 100% recovery of tritium. […]

Substance “(S)-4-[[[4-(4-Fluorophenyl)-1,2-bis(1-methylethyl)-5-phenyl-1H-pyrrol-3-yl]-ethynyl]hydroxyphosphinyl]-3-hydroxybutanoic acid, dilithium salt [SQ 34,346]” has an IC50 of 0.6 nM.
